{"source": "patent EP0037781A1", "about": "“Phenyl alcoxy propanol amines, their preparation and their use as medicines” (PIERRE FABRE S.A., priority 1980, dated 1981)", "assay": "Solubility (Solubilités) in water and dimethyl sulfoxide", "assay_type": "physicochemical", "details": "for solubility in dimethyl sulfoxide: diméthylsulfoxyde; for solubility: water, eau, read-out: Solubilités : Soluble dans l'eau", "note": "Counter-ions that a name gives are not always drawn.", "data": [{"smiles": "Cc1cccc(COCC(O)CNC(C)C)c1", "note": "(stereo not shown) [Exemple 1, isopropylamino-3, m-tolyl méthoxy-1 propanol-2 fumarate]", "values": [{"measurement": "solubility in dimethyl sulfoxide", "value": 15, "unit": "%"}, {"measurement": "solubility", "value": 100, "unit": "mg/mL"}]}, {"smiles": "Cc1cccc(COCC(O)CNC(C)(C)C)c1", "note": "(stereo not shown) [Exemple 2, tertiobutvlamino-3 métatol lméthoxy-1 propanol-2 maléate]", "values": [{"measurement": "solubility in dimethyl sulfoxide", "value": 10, "unit": "%"}, {"measurement": "solubility", "value": 25, "unit": "mg/mL"}]}, {"smiles": "COc1ccccc1COCC(O)CNC(C)C", "note": "(stereo not shown) [Exemple 3, isopropylamino-3 (orthométhoxy benzyloxy) 1 propanol-2 fumarate]", "values": [{"measurement": "solubility in dimethyl sulfoxide", "value": 15, "unit": "%"}, {"measurement": "solubility", "value": 100, "unit": "mg/mL"}]}, {"smiles": "COc1ccccc1COCC(O)CNC(C)(C)C", "note": "(stereo not shown) [Exemple 4, tertiobutylamino-3 (orthométhoxy benzyloxy)-1 propanol-2 maléate]", "values": [{"measurement": "solubility in dimethyl sulfoxide", "value": 15, "unit": "%"}, {"measurement": "solubility", "value": 100, "unit": "mg/mL"}]}, {"smiles": "COc1cccc(COCC(O)CNC(C)(C)C)c1", "note": "(stereo not shown) [Exemple 5, tertiobutylamino-3 (métaméthoxybenzyloxy)-1 propanol-2 maléate]", "values": [{"measurement": "solubility in dimethyl sulfoxide", "value": 12, "unit": "%"}, {"measurement": "solubility", "value": 100, "unit": "mg/mL"}]}, {"smiles": "COc1ccc(COCC(O)CNC(C)(C)C)cc1", "note": "(stereo not shown) [Exemple 6, tertiobutylamino-3 (paraméthoxy benzyloxy)-1 propanol-2 maléate]", "values": [{"measurement": "solubility in dimethyl sulfoxide", "value": 20, "unit": "%"}, {"measurement": "solubility", "value": 100, "unit": "mg/mL"}]}, {"smiles": "CC(C)(C)NCC(O)COCc1cccc(OCc2ccccc2)c1", "note": "(stereo not shown) [Exemple 7, tertiobutylamino-3 métabenzyloxy-benzyloxy-1 propanol-2 maléate]", "values": [{"measurement": "solubility in dimethyl sulfoxide", "value": 20, "unit": "%"}, {"measurement": "solubility", "value": 2, "unit": "mg/mL"}]}, {"smiles": "CC(C)NCC(O)COCc1cccc2ccccc12", "note": "(stereo not drawn) [Exemple 8, isopropylamino-3 (alpha-naphtyl méthoxy)-1 propanol-2 fumarate]", "values": [{"measurement": "solubility in dimethyl sulfoxide", "value": 8, "unit": "%"}, {"measurement": "solubility", "value": 14, "unit": "mg/mL"}]}, {"smiles": "CC(C)(C)NCC(O)COCc1cccc2ccccc12", "note": "(stereo not drawn) [Exemple 9, tertiobutylamino-3 (alpha-naphtyl méthoxy)-1 propanol-2 fumarate]", "values": [{"measurement": "solubility in dimethyl sulfoxide", "value": 15, "unit": "%"}, {"measurement": "solubility", "value": 100, "unit": "mg/mL"}]}, {"smiles": "CC(C)NCC(O)COCCCc1ccccc1", "note": "(stereo not shown) [Exemple 10, isopropylamino-3(phényl-3 propoxy)-1 pro^panol-2 fumarate]", "values": [{"measurement": "solubility in dimethyl sulfoxide", "value": 12, "unit": "%"}, {"measurement": "solubility", "value": 100, "unit": "mg/mL"}]}, {"smiles": "CC(C)(C)NCC(O)COCCCc1ccccc1", "note": "(stereo not shown) [Exemple 11, tertiobutylamino-3 phényl-3 propoxy)-1 propanol-2 fumarate]", "values": [{"measurement": "solubility in dimethyl sulfoxide", "value": 15, "unit": "%"}, {"measurement": "solubility", "value": 100, "unit": "mg/mL"}]}, {"smiles": "CC(C)(C)NCC(O)COC/C=C/c1ccccc1", "note": "(stereo not shown) [Exemple 12, tertiobutylamino-3 (phényl-3 propène-2 yl-1) oxy-1 ^propanol-2 maléate]", "values": [{"measurement": "solubility in dimethyl sulfoxide", "value": 15, "unit": "%"}, {"measurement": "solubility", "value": 10, "unit": "mg/mL"}]}, {"smiles": "CC(C)(C)NCC(O)COC1Cc2ccccc2C1", "note": "(stereo not shown) [Exemple 14, tertiobutylamino-3 (indanyl-2 oxy)-1 propanol-2 maléate]", "values": [{"measurement": "solubility in dimethyl sulfoxide", "value": 10, "unit": "%"}, {"measurement": "solubility", "value": 100, "unit": "mg/mL"}]}, {"smiles": "CC(C)NCC(O)COC1CCCc2ccccc21", "note": "(stereo not shown) [Exemple 15, isopropylamino-3 (tétrahydro 1,2,3,4 naphtyloxy-1)-1 propanol-2 fumarate]", "values": [{"measurement": "solubility", "value": 30, "unit": "mg/mL"}]}, {"smiles": "CC(C)(C)NCC(O)COC1CCCc2ccccc21", "note": "(stereo not shown) [Exemple 16, tertiobutylamino-3 (tétrahydro 1,2,3,4 naphtoxy-1)-1 pro^panol-2 maléate]", "values": [{"measurement": "solubility", "value": 20, "unit": "mg/mL"}]}]}
